In DBAASP:
Values after ≈ are worked out from the molar mass of the structure shown.

Legend:
Assay in all cases: ≥ marks a high value that may be exact or a test limit, other limits are often not marked, values filed in µg/mL are converted to µM
[1] = system: Stenotrophomonas maltophilia
[2] = system: Achromobacter xylosoxidans
Pseudomonas aeruginosa = system: Pseudomonas aeruginosa
[3] = system: Streptococcus pneumoniae ATCC 49619
[4] = system: Staphylococcus aureus ATCC 33591
[5] = system: Acinetobacter baumannii ATCC 17978D-5
[6] = system: Staphylococcus epidermidis ATCC 51625
[7] = system: Enterococcus faecium ATCC 700221
[8] = system: Pseudomonas aeruginosa ATCC 19660
[9] = system: Pseudomonas aeruginosa ATCC 27853
[10] = system: Klebsiella aerogenes ATCC 13048
[11] = system: Vibrio cholerae MTCC 3904
[12] = system: Proteus mirabilis MTCC 3158
[13] = system: Staphylococcus aureus MTCC 3160
[14] = system: Alcaligenes faecalis MTCC 1937
[15] = system: Bordetella bronchiseptica MTCC 6837
[16] = system: Klebsiella pneumoniae MTCC 7407
[17] = system: Pseudomonas aeruginosa MTCC 3542
[18] = system: Pluralibacter gergoviae MTCC 3826
[19] = system: Klebsiella aerogenes MTCC 111
[20] = system: Staphylococcus haemolyticus MTCC 3383
[21] = system: Salmonella enterica subsp. enterica serovar Typhimurium ATCC 14028
[22] = system: Shigella flexneri MTCC 1457
[23] = system: Alkalihalobacillus alcalophilus MTCC 860
[24] = system: Citrobacter freundii MTCC 1658
[25] = system: Klebsiella oxytoca MTCC 2275
[26] = system: Stenotrophomonas maltophilia MTCC 1890
[27] = system: Corynebacterium glutamicum MTCC 2679
[28] = system: Acinetobacter baumannii MTCC 9829
[29] = system: Shigella boydii MTCC 11947
[30] = system: Enterococcus faecalis MTCC 439
[31] = system: Escherichia coli K12 MG1655
[32] = system: Citrobacter koseri MTCC 1657
[33] = system: Proteus vulgaris MTCC 1771
[34] = system: Salmonella enterica MTCC 9844
[35] = system: Haemophilus influenzae MTCC 621

Row | SMILES | MIC [3] | MIC [4] | MIC [5] | MIC [6] | MIC [7] | MIC [8] | MIC [9] | MIC [10] | MIC [11] | MIC [12] | MIC [13] | MIC [14] | MIC [15] | MIC [16] | MIC [17] | MIC [18] | MIC [19] | MIC [20] | MIC [21] | MIC [22] | other results
1 | CC[C@H](C)[C@H](NC(=O)[C@H](CCCCN)NC(=O)[C@H](CCC(N)=O)NC(=O)CNC(=O)[C@@H](NC(=O)[C@H](CCCCN)NC(=O)[C@H](CCCCN)NC(=O)[C@H](CC(C)C)NC(=O)[C@H](CCCCN)NC(=O)[C@H](CCC(=O)O)NC(=O)[C@H](CCCCN)NC(=O)[C@@H](NC(=O)[C@H](CCCCN)NC(=O)[C@H](CC(N)=O)NC(=O)[C@H](CCCN=C(N)N)NC(=O)[C@H](Cc1ccccc1)NC(=O)[C@H](CCCCN)NC(=O)[C@H](CCCN=C(N)N)NC(=O)[C@H](CC(C)C)NC(=O)[C@H](CCCN=C(N)N)NC(=O)[C@H](CCCCN)NC(=O)[C@@H](N)CCCN=C(N)N)[C@@H](C)CC)[C@@H](C)CC)C(=O)O [RKRLRKFRNKIKEKLKKIGQKI] |  |  |  |  |  |  |  |  |  |  |  |  |  |  |  |  |  |  |  |  | MIC [1]: 4.03 µM (≈ 11.3 µg/mL); MIC [2]: 2.01 µM (≈ 5.66 µg/mL); MIC (Pseudomonas aeruginosa): 1.42 µM (≈ 4 µg/mL)
2 | C[C@H](NC(=O)[C@H](Cc1ccccc1)NC(=O)[C@H](C)NC(=O)[C@@H](N)Cc1ccccc1)C(=O)N[C@@H](Cc1ccccc1)C(=O)N[C@@H](CCCCN)C(=O)N[C@@H](C)C(=O)N[C@@H](Cc1ccccc1)C(=O)N[C@@H](CCCCN)C(=O)N[C@@H](CCCCN)C(=O)N[C@@H](C)C(=O)N[C@@H](Cc1ccccc1)C(=O)N[C@@H](CCCCN)C(=O)N[C@@H](CCCCN)C(=O)N[C@@H](Cc1ccccc1)C(=O)N[C@@H](CCCCN)C(=O)N[C@@H](CCCCN)C(=O)N[C@@H](C)C(=O)N[C@@H](Cc1ccccc1)C(=O)N[C@@H](CCCCN)C(=O)N[C@@H](CCCCN)C(=O)N[C@@H](C)C(=O)N[C@@H](Cc1ccccc1)C(=O)NCC(=O)N1CCC[C@H]1C(=O)N[C@@H](CS)C(=O)O [FAFAFKAFKKAFKKFKKAFKKAFGPC] | 21.1 µM (≈ 64 µg/mL) | 21.1 µM (≈ 64 µg/mL) | 21.1 µM (≈ 64 µg/mL) | 21.1 µM (≈ 64 µg/mL) | 21.1 µM (≈ 64 µg/mL) | 21.1 µM (≈ 64 µg/mL) | > 21.1 µM | 21.1 µM (≈ 64 µg/mL) |  |  |  |  |  |  |  |  |  |  |  |  | 
3 | CC[C@H](C)[C@H](NC(=O)[C@H](CCCCN)NC(=O)[C@H](Cc1ccccc1)NC(=O)[C@H](C)NC(=O)[C@H](C)NC(=O)[C@H](CCCCN)NC(=O)[C@@H](NC(=O)[C@H](CC(C)C)NC(=O)CNC(=O)[C@H](CCCCN)NC(=O)[C@H](Cc1c[nH]c2ccccc12)NC(=O)[C@@H](N)Cc1ccccc1)C(C)C)C(=O)N[C@H](C(=O)N[C@@H](Cc1cnc[nH]1)C(=O)N[C@@H](C)C(=O)NCC(=O)N[C@@H](CO)C(=O)O)C(C)C [FWKGLVKAAFKIVHAGS] |  |  |  |  |  |  |  |  | ≥ 68.8 µM | ≥ 68.8 µM | ≥ 68.8 µM | ≥ 68.8 µM | 4.3 µM (≈ 8 µg/mL) | ≥ 68.8 µM | ≥ 68.8 µM | ≥ 68.8 µM | ≥ 68.8 µM | 8.61 µM (≈ 16 µg/mL) | > 68.8 µM | ≥ 68.8 µM | MIC [23]: 8.61 µM (≈ 16 µg/mL); MIC [24]: ≥ 68.8 µM; MIC [25]: ≥ 34.4 µM; MIC [26]: ≥ 68.8 µM; MIC [27]: 1.08 µM (≈ 2 µg/mL); MIC [28]: 8.61 µM (≈ 16 µg/mL); MIC [29]: ≥ 68.8 µM; MIC [30]: ≥ 68.8 µM; MIC [31]: ≥ 34.4 µM; MIC [32]: ≥ 34.4 µM; MIC [33]: ≥ 68.8 µM; MIC [34]: ≥ 68.8 µM; MIC [35]: ≥ 68.8 µM
4 | CC[C@H](C)[C@H](NC(=O)[C@H](Cc1cnc[nH]1)NC(=O)[C@H](Cc1cnc[nH]1)NC(=O)[C@@H](NC(=O)[C@@H](NC(=O)[C@H](CCCCN)NC(=O)[C@@H](NC(=O)[C@@H](NC(=O)[C@H](CCCCN)NC(=O)[C@H](Cc1cnc[nH]1)NC(=O)[C@H](Cc1ccccc1)NC(=O)[C@H](C)NC(=O)[C@H](CO)NC(=O)[C@H](CC(C)C)NC(=O)[C@@H](N)C(C)C)C(C)C)[C@@H](C)CC)[C@@H](C)CC)[C@@H](C)CC)C(=O)N[C@@H](CO)C(=O)N[C@@H](Cc1cnc[nH]1)C(=O)N[C@@H](Cc1ccccc1)C(=O)O [VLSAFHKVIKIIHHISHF] |  |  |  |  |  |  |  |  | ≥ 60.2 µM | ≥ 60.2 µM | ≥ 60.2 µM | ≥ 60.2 µM | 1.88 µM (≈ 4 µg/mL) | ≥ 60.2 µM | ≥ 60.2 µM | ≥ 60.2 µM | ≥ 60.2 µM | 15 µM (≈ 32 µg/mL) | > 60.2 µM | 3.76 µM (≈ 8 µg/mL) | MIC [23]: 15 µM (≈ 32 µg/mL); MIC [24]: ≥ 60.2 µM; MIC [25]: ≥ 60.2 µM; MIC [26]: ≥ 60.2 µM; MIC [27]: 1.88 µM (≈ 4 µg/mL); MIC [28]: 7.52 µM (≈ 16 µg/mL); MIC [29]: 7.52 µM (≈ 16 µg/mL); MIC [30]: ≥ 60.2 µM; MIC [31]: 15 µM (≈ 32 µg/mL); MIC [32]: 7.52 µM (≈ 16 µg/mL); MIC [33]: ≥ 60.2 µM; MIC [34]: 15 µM (≈ 32 µg/mL); MIC [35]: 3.76 µM (≈ 8 µg/mL)
5 | CC[C@H](C)[C@H](NC(=O)[C@H](CCCCN)NC(=O)[C@H](C)NC(=O)[C@H](CCCN=C(N)N)NC(=O)[C@H](CC(C)C)NC(=O)[C@H](CCCN=C(N)N)NC(=O)[C@@H](NC(=O)[C@H](CCCCN)NC(=O)[C@@H](NC(=O)[C@H](CCCCN)NC(=O)[C@H](C)NC(=O)[C@H](CCCN=C(N)N)NC(=O)[C@H](CC(C)C)NC(=O)[C@H](CCCCN)NC(=O)[C@H](Cc1ccccc1)NC(=O)CNC(=O)[C@@H](N)CCSC)[C@@H](C)CC)C(C)C)C(=O)N[C@@H](CCCCN)C(=O)N[C@@H](CC(C)C)C(=O)O [MGFKLRAKIKVRLRAKIKL] | 28.2 µM (≈ 64 µg/mL) | 28.2 µM (≈ 64 µg/mL) | 28.2 µM (≈ 64 µg/mL) | 1.76 µM (≈ 4 µg/mL) | 28.2 µM (≈ 64 µg/mL) | 28.2 µM (≈ 64 µg/mL) | > 28.2 µM | 28.2 µM (≈ 64 µg/mL) |  |  |  |  |  |  |  |  |  |  |  |  | 
